≈ marks a conversion by molar mass, not a printed value.
Assays:
Assay type in all cases: functional
Cryptococcus neoformans [1] = assay: In vitro Minimum inhibitory concentration (MIC) for antifungal activity against Cryptococcus neoformans 2867
Candida albicans [2] = assay: In vitro Minimum inhibitory concentration (MIC) for antifungal activity against Candida albicans 2005
Candida tropicalis [3] = assay: In vitro Minimum inhibitory concentration (MIC) for antifungal activity against Candida tropicalis 2808
Kluyveromyces marxianus [4] = assay: In vitro Minimum inhibitory concentration (MIC) for antifungal activity against Candida pseudotropicalis 2371
Candida albicans [5] = assay: In vitro Minimum inhibitory concentration (MIC) for antifungal activity against Candida albicans 1208
Candida albicans [6] = assay: In vitro Minimum inhibitory concentration (MIC) for antifungal activity against Candida albicans 2402
Kluyveromyces marxianus [7] = assay: In vitro Minimum inhibitory concentration (MIC) for antifungal activity against Candida pseudotropicalis 2371E
Candida albicans [8] = assay: In vitro Minimum inhibitory concentration (MIC) for antifungal activity against Candida albicans 2402E
Candida tropicalis [9] = assay: In vitro Minimum inhibitory concentration (MIC) for antifungal activity against Candida tropicalis 2808E
Cryptococcus neoformans [10] = assay: In vitro Minimum inhibitory concentration (MIC) for antifungal activity against Cryptococcus neoformans 2867E
Candida albicans [11] = assay: In vitro Minimum inhibitory concentration (MIC) for antifungal activity against Candida albicans 1208E
Candida albicans [12] = assay: In vitro Minimum inhibitory concentration (MIC) for antifungal activity against Candida albicans 2005E

| Structure (SMILES) | MIC (Cryptococcus neoformans [1]) | MIC (Candida albicans [2]) | MIC (Candida tropicalis [3]) | MIC (Kluyveromyces marxianus [4]) | MIC (Candida albicans [5]) | MIC (Candida albicans [6]) | MIC (Kluyveromyces marxianus [7]) | MIC (Candida albicans [8]) | MIC (Candida tropicalis [9]) | MIC (Cryptococcus neoformans [10]) | MIC (Candida albicans [11]) | MIC (Candida albicans [12]) |
| --- | --- | --- | --- | --- | --- | --- | --- | --- | --- | --- | --- | --- |
| CCCCCCCCNC(=O)O[C@H]1C(O)[C@H](OCC23C[C@@H]4[C@H](C)CC[C@H]4C4(C=O)CC2C=C(C(C)C)C34C(=O)O)O[C@H](C)[C@H]1OC (some centres undefined) | 31 µg/mL (≈ 47.9 µM) | 0.06 µg/mL (≈ 0.0926 µM) | 2 µg/mL (≈ 3.09 µM) | 1 µg/mL (≈ 1.54 µM) | 4 µg/mL (≈ 6.17 µM) | 2 µg/mL (≈ 3.09 µM) |  |  |  |  |  |  |
| CO[C@H]1[C@@H](OC(=O)OCc2ccccc2)[C@H](OC(=O)OCc2ccccc2)[C@H](OCC23C[C@@H]4[C@H](C)CC[C@H]4C4(C=O)CC2C=C(C(C)C)C34C(=O)O)O[C@@H]1C (some centres undefined) |  |  |  |  |  |  | > 62 µg/mL | > 62 µg/mL | > 62 µg/mL | > 62 µg/mL | > 62 µg/mL | 62 µg/mL (≈ 81.5 µM) |
| CCCCCCCCOC(=O)O[C@H]1C(O)[C@H](OCC23C[C@@H]4[C@H](C)CC[C@H]4C4(C=O)CC2C=C(C(C)C)C34C(=O)O)O[C@H](C)[C@H]1OC (some centres undefined) | 8 µg/mL (≈ 12.3 µM) | 0.25 µg/mL (≈ 0.385 µM) | 8 µg/mL (≈ 12.3 µM) | 0.12 µg/mL (≈ 0.185 µM) | 1 µg/mL (≈ 1.54 µM) | 0.5 µg/mL (≈ 0.771 µM) |  |  |  |  |  |  |
| CCCCCC(=O)O[C@H]1[C@H](OC(=O)CCCCC)[C@H](OCC23C[C@@H]4[C@H](C)CC[C@H]4C4(C=O)CC2C=C(C(C)C)C34C(=O)O)O[C@H](C)[C@H]1OC (some centres undefined) |  |  |  |  |  |  | > 125 µg/mL | 8 µg/mL (≈ 11.6 µM) | > 125 µg/mL | > 125 µg/mL | 8 µg/mL (≈ 11.6 µM) | 4 µg/mL (≈ 5.81 µM) |
| C/C=C/C=C(\C)C(=O)O[C@H]1C(O)[C@H](OCC23C[C@@H]4[C@H](C)CC[C@H]4C4(C=O)CC2C=C(C(C)C)C34C(=O)O)O[C@H](C)[C@H]1OC (some centres undefined) | 0.25 µg/mL (≈ 0.416 µM) | 0.015 µg/mL (≈ 0.025 µM) | 0.06 µg/mL (≈ 0.0999 µM) | 0.03 µg/mL (≈ 0.0499 µM) | 0.25 µg/mL (≈ 0.416 µM) | 0.03 µg/mL (≈ 0.0499 µM) |  |  |  |  |  |  |
| CCC/C=C(\C)C(=O)O[C@H]1C(O)[C@H](OCC23C[C@@H]4[C@H](C)CC[C@H]4C4(C=O)CC2C=C(C(C)C)C34C(=O)O)O[C@H](C)[C@H]1OC (some centres undefined) | 62 µg/mL (≈ 103 µM) | 0.015 µg/mL (≈ 0.0249 µM) | 0.5 µg/mL (≈ 0.83 µM) | 0.12 µg/mL (≈ 0.199 µM) | 1 µg/mL (≈ 1.66 µM) | 0.5 µg/mL (≈ 0.83 µM) |  |  |  |  |  |  |
| CO[C@@H]1[C@@H](C)O[C@@H](OCC23C[C@@H]4[C@H](C)CC[C@H]4C4(C=O)CC2C=C(C(C)C)C34C(=O)O)C(O)[C@@H]1OC(=O)OCc1ccccc1 (some centres undefined) | > 62 µg/mL | 2 µg/mL (≈ 3.19 µM) | 8 µg/mL (≈ 12.8 µM) | 2 µg/mL (≈ 3.19 µM) | 8 µg/mL (≈ 12.8 µM) | 8 µg/mL (≈ 12.8 µM) |  |  |  |  |  |  |
| CCCCC(C)C(=O)OC1C(O)[C@H](OCC23C[C@@H]4[C@H](C)CC[C@H]4C4(C=O)CC2C=C(C(C)C)C34C(=O)O)O[C@H](C)[C@H]1OC (single isomer, unassigned) | 8 µg/mL (≈ 13.2 µM) | 0.008 µg/mL (≈ 0.0132 µM) | 0.25 µg/mL (≈ 0.413 µM) | 0.06 µg/mL (≈ 0.0992 µM) | 0.12 µg/mL (≈ 0.198 µM) | 0.06 µg/mL (≈ 0.0992 µM) |  |  |  |  |  |  |
| CO[C@H]1C(OC(=O)CCCCCl)C(O)[C@H](OCC23C[C@@H]4[C@H](C)CC[C@H]4C4(C=O)CC2C=C(C(C)C)C34C(=O)O)O[C@@H]1C (single isomer, unassigned) | 16 µg/mL (≈ 26.2 µM) | 0.12 µg/mL (≈ 0.196 µM) | 1 µg/mL (≈ 1.64 µM) | 0.25 µg/mL (≈ 0.409 µM) | 2 µg/mL (≈ 3.27 µM) | 2 µg/mL (≈ 3.27 µM) |  |  |  |  |  |  |
| CO[C@H]1C(OC(=O)c2ccco2)C(O)[C@H](OCC23C[C@@H]4[C@H](C)CC[C@H]4C4(C=O)CC2C=C(C(C)C)C34C(=O)O)O[C@@H]1C (single isomer, unassigned) | > 125 µg/mL | 2 µg/mL (≈ 3.41 µM) | 8 µg/mL (≈ 13.6 µM) | 4 µg/mL (≈ 6.82 µM) | 16 µg/mL (≈ 27.3 µM) | 16 µg/mL (≈ 27.3 µM) |  |  |  |  |  |  |
| COCC(=O)OC1C(O)[C@H](OCC23C[C@@H]4[C@H](C)CC[C@H]4C4(C=O)CC2C=C(C(C)C)C34C(=O)O)O[C@H](C)[C@H]1OC (single isomer, unassigned) | 125 µg/mL (≈ 221 µM) | 62 µg/mL (≈ 110 µM) | > 125 µg/mL | 16 µg/mL (≈ 28.3 µM) | > 125 µg/mL | 125 µg/mL (≈ 221 µM) |  |  |  |  |  |  |
| CCCCCC(=O)OC1C(O)[C@H](OCC23C[C@@H]4[C@H](C)CC[C@H]4C4(C=O)CC2C=C(C(C)C)C34C(=O)O)O[C@H](C)[C@H]1OC (single isomer, unassigned) | 16 µg/mL (≈ 27.1 µM) | 0.015 µg/mL (≈ 0.0254 µM) | 0.03 µg/mL (≈ 0.0508 µM) | 0.01 µg/mL (≈ 0.0169 µM) | 0.25 µg/mL (≈ 0.423 µM) | 0.25 µg/mL (≈ 0.423 µM) |  |  |  |  |  |  |
| CCCCCCCCCC(=O)OC1C(O)[C@H](OCC23C[C@@H]4[C@H](C)CC[C@H]4C4(C=O)CC2C=C(C(C)C)C34C(=O)O)O[C@H](C)[C@H]1OC (single isomer, unassigned) | 1 µg/mL (≈ 1.55 µM) | 0.25 µg/mL (≈ 0.386 µM) | 8 µg/mL (≈ 12.4 µM) | 0.25 µg/mL (≈ 0.386 µM) | 1 µg/mL (≈ 1.55 µM) | 1 µg/mL (≈ 1.55 µM) |  |  |  |  |  |  |
| CO[C@H]1C(OC(=O)c2ccccc2)C(O)[C@H](OCC23C[C@@H]4[C@H](C)CC[C@H]4C4(C=O)CC2C=C(C(C)C)C34C(=O)O)O[C@@H]1C (single isomer, unassigned) | > 125 µg/mL | 0.12 µg/mL (≈ 0.201 µM) | 0.5 µg/mL (≈ 0.838 µM) | 0.25 µg/mL (≈ 0.419 µM) | 1 µg/mL (≈ 1.68 µM) | 1 µg/mL (≈ 1.68 µM) |  |  |  |  |  |  |
| CCCCCCOC1[C@H](O)[C@H](OCC23C[C@@H]4[C@H](C)CC[C@H]4C4(C=O)CC2C=C(C(C)C)C34C(=O)O)O[C@H](C)[C@H]1OC (single isomer, unassigned) |  |  |  |  |  |  | 0.25 µg/mL (≈ 0.433 µM) | 2 µg/mL (≈ 3.47 µM) | 1 µg/mL (≈ 1.73 µM) | 31 µg/mL (≈ 53.7 µM) | 4 µg/mL (≈ 6.94 µM) | 0.25 µg/mL (≈ 0.433 µM) |
| CCCCCCCC(=O)OC1C(O)[C@H](OCC23C[C@@H]4[C@H](C)CC[C@H]4C4(C=O)CC2C=C(C(C)C)C34C(=O)O)O[C@H](C)[C@H]1OC (single isomer, unassigned) | 0.25 µg/mL (≈ 0.404 µM) | < 0.001 µg/mL | 0.06 µg/mL (≈ 0.097 µM) | 0.004 µg/mL (≈ 0.00646 µM) | 0.06 µg/mL (≈ 0.097 µM) | 0.03 µg/mL (≈ 0.0485 µM) |  |  |  |  |  |  |
| COC1C(O)C(O)[C@H](OCC23C[C@@H]4[C@H](C)CC[C@H]4C4(C=O)CC2C=C(C(C)C)C34C(=O)O)O[C@@H]1C (single isomer, unassigned) | > 125 µg/mL | 8 µg/mL (≈ 16.2 µM) | 16 µg/mL (≈ 32.5 µM) | 16 µg/mL (≈ 32.5 µM) | 31 µg/mL (≈ 62.9 µM) | 31 µg/mL (≈ 62.9 µM) |  |  |  |  |  |  |
| CCCC(=O)OC1C(O)[C@H](OCC23C[C@@H]4[C@H](C)CC[C@H]4C4(C=O)CC2C=C(C(C)C)C34C(=O)O)O[C@H](C)[C@H]1OC (single isomer, unassigned) | > 125 µg/mL | 0.25 µg/mL (≈ 0.444 µM) | 2 µg/mL (≈ 3.55 µM) | 0.5 µg/mL (≈ 0.889 µM) | 1 µg/mL (≈ 1.78 µM) | 2 µg/mL (≈ 3.55 µM) |  |  |  |  |  |  |
| CCCCCC(=O)O[C@@H]1[C@H](OCC23C[C@@H]4[C@H](C)CC[C@H]4C4(C=O)CC2C=C(C(C)C)C34C(=O)O)O[C@H](C)C(OC)[C@H]1O (single isomer, unassigned) |  |  |  |  |  |  | 31 µg/mL (≈ 52.5 µM) | 31 µg/mL (≈ 52.5 µM) | 62 µg/mL (≈ 105 µM) | 31 µg/mL (≈ 52.5 µM) | 31 µg/mL (≈ 52.5 µM) | 8 µg/mL (≈ 13.5 µM) |
